Results from article PMC12645191, “Dicarboxylate and dicarboxylic acid appended supramolecular self-associating amphiphiles as antimicrobial agents against high priority bacterial pathogens” (Organic & Biomolecular Chemistry, 2025).
Several values for one entry are separate records, joined by “and”; a condition that tells them apart may be missing. Identical values can stand only once. Marks after values point to notes of the source that are not given here.

Assays:
[1] = tensiometry: critical aggregate concentration (CAC) and surface tension; assay type: physicochemical; conditions: for Surface tension at CAC: H2O/5.0 % EtOH
Protocol: As the (Q) ^1H NMR spectroscopy experiments conducted at 5.6 mM in a D2O 5.0% EtOH solution confirmed the presence of higher-order self-associated structures with solid-like properties, concentration dependent surface tension measurements, obtained through tensiometry, were used to calculate critical aggregate concentration (CAC). Here the CAC is defined as the point at which an increase in SSA concentration no longer decreases surface tension but instead results in the formation of higher-order self-associated structures.

A. baumannii ATCC 17978 = test: inhibition of bacterial growth, OD600 after 20 h; assay type: cell-based, Acinetobacter baumannii; conditions: SSA 5.0 mM, 2.5% ethanol, negative = enhanced growth
Protocol: (§1) With the self-associative properties of 1–10 established, the antimicrobial activity of these SSAs were determined against a panel of clinically relevant, high-priority pathogens including: P. aeruginosa PAO1; Klebsiella pneumonia (K. pneumoniae) M6; E. coli NCTC 12923; Acinetobacter baumannii (A. baumannii) ATCC 17978; S. aureus ATCC 9144; Enterococcus faecalis (E. faecalis) NCTC 775; and Enterococcus faecium (E. faecium) NCTC 12204. […] However, it should be noted that the SSA stock solution was prepared in a H2O 5% EtOH solution, to ensure that the SSA aggregates formed were in line with those characterised within the scope of the SSA self-association studies.
(§2) Section 3: Biological methods
(§3) These methods were taken directly from UK Health and Security Office (UKHSA) standard […]
(§4) Preparation of Luria Broth media (LB): Yeast extract (5.0 g), tryptone (10.0 g) and sodium chloride (10.0 g) were dissolved in dH₂O (1.0 L) then divided into bottles and autoclaved.
(§5) Preparation of Luria Broth (LB) agar plates: Agar (6.0 g) was added to LB (400 mL) and autoclaved. Once cool, the LB agar was poured into sterile petri dishes under sterile conditions and allowed to set. LB plates were stored at 4 °C until use.
(§6) Preparation of bacterial plates: Sterile LB agar plates were streaked using streaked using the desired bacteria i) Pseudomonas aeruginosa (P.aeruginosa) PAO1, ii) Klebsiella pneumoniae (K. pneumoniae) M6 iii) E. coli NCTC 12923 and iv) Acinetobacter baumannii (A. baumannii) ATCC 17978 and Gram-positive i) Staphylococcus aureus (S. aureus) ATCC 9144 ii) Enterococcus faecalis (E. faecalis) NCTC 775 and iii) Enterococcus faecium (E. faecium ) NCTC 12204, then incubated at 37 °C overnight.
(§7) Preparation of Inoculum: An initial culture was made up by inoculating LB media (5 mL) with a single colony of bacteria under sterile conditions and incubated at 37 °C with shaking overnight. The following day, overnight bacterial cultures were subcultured into fresh LB medium to a starting OD600 of 0.01.
(§8) Preparation of 96 well microplate for MIC50: The 1:100 cell suspension (150 µL) was dispensed into individual wells under sterile conditions. SSAs (30 µL) were added to the wells to equal a total volume of 180 µL in the wells. Six repeats of each concentration for each SSA were created each plate. The plates were sealed using parafilm, then incubated at 37 °C in a microplate reader for 20 hours. OD600 endpoint data was used to generate growth curves. […]

[2] = metabolic stability in liver microsomes; assay type: in vitro ADME, mouse; conditions: for microsomal CLint at 1 µM: read-out: in vitro CLint; for half-life at 1 µM: read-out: in vitro t1/2; for CLint scaled at 1 µM: liver microsomes, read-out: Scale-up CLint
Protocol: Metabolic stability was assessed in mouse and rat liver microsomes. Microsomes are subcellular fractions of hepatocytes and contain CYP450s, the predominant enzymes involved in first-pass metabolism.[66] […] A plasma protein binding assay was performed to assess the extent of compound binding to plasma proteins. This is key as only unbound compound is free to distribute and exert a pharmacological effect. […] To assess the potential for this sub-class of SSAs to be developed as drugs for oral administration, Caco-2 permeability assays were also performed, as a cellular model indicative of human intestinal permeability.
Section 3: Biological methods […]
In vitro Absorption, Distribution and Metabolism
These studies were performed by Contract Research Organisation (CRO) Pharmaron. The methodology provided within the ESI is published within the express permission of this organisation. The percentage of a compound recovered during the analysis process should be 100 %; any deviation from this value indicates experimental limitations such as unintended potential non-specific binding events to experimental equipment, solubility issues, etc.
Metabolic Stability in Rat and Mouse Liver Microsomes:
The metabolic stability of compounds at a concentration of 1 µM, in rat and mouse liver […]
/ mL) in the presence and absence of cofactor (NADPH) at 37 °C. Aliquots of each incubation were removed at 0.5, 5, 15, 30 and 60 minutes. The reaction was stopped by the addition of 5 volumes of cold acetonitrile containing analytical internal standard (IS).
Samples were then centrifuged at 3 °C, 220 g for 40 minutes to remove cell debris. The supernatant was aliquoted and added to ultra-pure H2O in a 1:1 ratio in preparation for LC- […]
Samples were analysed using a Shimadzu liquid chromatography system coupled to a Triple Quad 6500+ mass spectrometry (AB Inc.) Separation of compounds was achieved using an HSS T3 column (50 x 2.1 mm) at a temperature of 40 °C and a binary mobile phase gradient […]
at a flow rate of 0.7 mL/min. […]
acid in water) and 5 % solvent B (0.1 % formic acid in acetonitrile). […]
solvent B at 0.7 minutes, held for 0.5 minutes and then immedi ately returned to initial conditions. Sample analysis was by electrospray ionisation. […]

K. pneumoniae M6 = test: inhibition of bacterial growth, OD600 after 20 h; assay type: cell-based, Klebsiella pneumoniae; conditions: SSA 5.0 mM, 2.5% ethanol, negative = enhanced growth; for inhibition at 5000 µM: Klebsiella pneumoniae, M6, 20 h, read-out: Percentage inhibition of bacterial growth, M6 (K. pneumoniae)
Protocol: as §1, §2, §3, §4, §5, §6, §7, §8

E. coli NCTC 12923 = test: inhibition of bacterial growth, OD600 after 20 h; assay type: cell-based, Escherichia coli; conditions: SSA 5.0 mM, 2.5% ethanol, negative = enhanced growth
Protocol: as §1, §2, §3, §4, §5, §6, §7, §8

E. faecalis NCTC 775 = test: inhibition of bacterial growth, OD600 after 20 h; assay type: cell-based, Enterococcus faecalis; conditions: SSA 5.0 mM, 2.5% ethanol, negative = enhanced growth
Protocol: as §1, §2, §3, §4, §5, §6, §7, §8

[3] = dynamic light scattering (DLS) of SSA aggregates; assay type: physicochemical; conditions: 5.6 mM, H2O 5.0% EtOH, 298 K
Protocol: Dynamic light scattering (DLS) and zeta potential measurements in H2O 5.0% EtOH were used to determine the hydrodynamic diameter (dH) and stability of the higher-order SSA aggregates detected by (Q) ^1H NMR spectroscopy at 5.6 mM, Table 1. […] However, we are unable to confidently report a dH for 1 due to the instability of this system, which is supported by a zeta potential value of −26 mV, obtained for this SSA under the same experimental conditions. […] Due to the instability of these systems in the absence of solvent, attempts to further characterise these systems through SEM or AFM are not possible.[48]

[4] = mouse liver microsomes, 1 µM, 0.5 mg protein/mL

Structure (SMILES)	CAC ([1]; H2O 5.0% EtOH, 298 K)	ST at CAC ([1]; H2O 5.0% EtOH, 298 K)	Surface tension at CAC [1]	Percentage inhibition of bacterial growth, ATCC 17978 (A. baumannii) (A. baumannii ATCC 17978)	Hepatic Extraction Ratio (ER) ([2]; mouse)	Predicted Hepatic CLH ([2]; mouse)	microsomal CLint at 1 µM [2, 4]	half-life at 1 µM [2, 4]	Remaining percentage ([2]; mouse, +Cofactors, 0.5 min)	Remaining percentage ([2]; mouse, +Cofactors, 5 min)	Remaining percentage ([2]; mouse, +Cofactors, 15 min)	Remaining percentage ([2]; mouse, +Cofactors, 30 min)	Remaining percentage ([2]; mouse, +Cofactors, 60 min)	Remaining percentage ([2]; mouse, -Cofactors, 0.5 min)	Remaining percentage ([2]; mouse, -Cofactors, 60 min)	CLint scaled at 1 µM ([2]; mouse)	inhibition at 5000 µM (K. pneumoniae M6)	Percentage inhibition of bacterial growth, M6 (K. pneumoniae) (K. pneumoniae M6)	Percentage inhibition of bacterial growth, NCTC 12923 (E. coli) (E. coli NCTC 12923)	Percentage inhibition of bacterial growth, NCTC 775 (E. faecalis) (E. faecalis NCTC 775)	also measured
O=C(O)CC[C@H](NC(=O)Nc1ccc(C(F)(F)F)cc1)C(=O)O [SSA 1]	19.23 mM and 19 mM	39 mN m^−1	38.90 mN/m	90.67% and 91%	< 0.26	< 23.07 mL/min/kg	< 7.5 µL/min/mg	> 3.08 h	100.00%	100.09%	98.69%	98.11%	105.07%	100.00%	103.10%	< 31 mL/min/kg	26.2%	26%	64.03% and 64%	98.79% and 99%	–
O=C(O)CC[C@H](NC(=O)Nc1ccc(C(F)(F)F)cc1)C(=O)O [SSA 2]	19.84 mM and 20 mM	37 mN m^−1	37.13 mN/m	-23.34% and −23%	< 0.26	< 23.07 mL/min/kg	–	–	100.00%	101.97%	102.46%	101.55%	102.31%	100.00%	102.89%	–	–	17.56% and 18%	6.06% and 6%	21.86% and 22%	Polydispersity index (%) [3]: 18.2 (± 1.1) %; dH (DLS intensity distribution peak 1 maxima) [3]: 140 nm; Scale-up CLint ([2]; mouse): < 31.02 mL/min/kg; in vitro CLint [2, 4]: < 7.50 µL/min/mg; in vitro t1/2 [2, 4]: > 3.0797 h
O=C(O)CC[C@@H](NC(=O)Nc1ccc(C(F)(F)F)cc1)C(=O)O [SSA 3]	–	–	–	–	< 0.26	< 23.07 mL/min/kg	< 7.5 µL/min/mg	> 3.08 h	100.00%	99.16%	100.05%	98.24%	98.27%	100.00%	93.98%	< 31 mL/min/kg	15.4%	–	–	–	DLS Peak 2 maxima ([3]; listed as 3): 1410 nm; Polydispersity index (%) ([3]; listed as 3): 20.2 (± 0.7) %; dH (DLS intensity distribution peak 1 maxima) ([3]; listed as 3): 154 nm; CAC ([1]; H2O 5.0% EtOH, 298 K, listed as 3): 17.46 mM and 20 mM; Surface tension at CAC ([1]; listed as 3): 38.73 mN/m; Percentage inhibition of bacterial growth, ATCC 17978 (A. baumannii) (A. baumannii ATCC 17978; listed as 3): 94.45% and 94%; Percentage inhibition of bacterial growth, M6 (K. pneumoniae) (K. pneumoniae M6; listed as 3): 15%; Percentage inhibition of bacterial growth, NCTC 12923 (E. coli) (E. coli NCTC 12923; listed as 3): 59.91% and 60%; inhibition at 5000 µM (E. faecalis NCTC 775; Enterococcus faecalis, NCTC775, 20 h, read-out: Percentage inhibition of bacterial growth, NCTC 775 (E. faecalis)): 98.8%; Percentage inhibition of bacterial growth, NCTC 775 (E. faecalis) (E. faecalis NCTC 775; listed as 3): 99%
O=C(O)CC[C@H](NC(=O)Nc1ccc(Br)cc1)C(=O)O [SSA 9]	–	–	–	–	< 0.26	< 23.07 mL/min/kg	< 7.5 µL/min/mg	> 3.08 h	100.00%	101.88%	100.09%	97.61%	103.16%	100.00%	103.83%	< 31 mL/min/kg	–	–	–	–	Polydispersity index (%) ([3]; listed as 9): 25.6 (± 1.0) %; dH (DLS intensity distribution peak 1 maxima) ([3]; listed as 9): 178 nm; CAC (footnote in place of a value) ([1]; H2O 5.0% EtOH, 298 K): ^c (CAC is >100 mM); ST at the limit of solubility or 100 mM, whichever concentration is lower ([1]; H2O 5.0% EtOH, 298 K): 54 ^d mN m^−1; Surface tension at CAC ([1]; listed as 9): 54.44 mN/m; Percentage inhibition of bacterial growth, ATCC 17978 (A. baumannii) (A. baumannii ATCC 17978; listed as 9): -8.08% and −8%; Percentage inhibition of bacterial growth, M6 (K. pneumoniae) (K. pneumoniae M6; listed as 9): 21.69% and 22%; Percentage inhibition of bacterial growth, NCTC 12923 (E. coli) (E. coli NCTC 12923; listed as 9): 62.96% and 63%; Percentage inhibition of bacterial growth, NCTC 775 (E. faecalis) (E. faecalis NCTC 775; listed as 9): 20%
